Measured values published in patent US20070276011A1, “Plasminogen Activator Inhibitor-1 Inhibitor” (priority 2003, published 2007).

Biological target: recombinant human PAI-1 (Homo sapiens, UniProt P05121)
Assay: PAI-1 inhibitory activity, Test Method A (tPA fluorogenic substrate, Tris buffer pH8.0, 37 C)
Assay type: biochemical
Details: for Inhibitory Ratio at 25 μM (%): Test Method A
Protocol: To this solution, 50 μL solution of 400 μM fluogenic substrate for tPA (Pyr-Gly-Arg-MCA, Peptide Institute, Inc.) adjusted with the same buffer was added, and reacted for 30 minutes at 37° C. The reaction was stopped by adding 50 μL of 2% acetic acid. Fluorescence was measured at the excitation wavelength=360 nm, emission wavelength=460 or 465 nm using a microplate reader (SPECTRAFLUOR or GENios) by TECAN. The fluorescence intensities in the presence of the PAI-1 as the control (DMSO) or in the absence of the PAI-1 (tPA alone) were taken as 100% and 0% of PAI-1 activities, respectively, and inhibitory ratios of PAI-1 activities in the presence of the test compound were obtained.
<Composition of the Tris Buffer (pH8.0)>

Sequence of recombinant human PAI-1 (P05121 24-402): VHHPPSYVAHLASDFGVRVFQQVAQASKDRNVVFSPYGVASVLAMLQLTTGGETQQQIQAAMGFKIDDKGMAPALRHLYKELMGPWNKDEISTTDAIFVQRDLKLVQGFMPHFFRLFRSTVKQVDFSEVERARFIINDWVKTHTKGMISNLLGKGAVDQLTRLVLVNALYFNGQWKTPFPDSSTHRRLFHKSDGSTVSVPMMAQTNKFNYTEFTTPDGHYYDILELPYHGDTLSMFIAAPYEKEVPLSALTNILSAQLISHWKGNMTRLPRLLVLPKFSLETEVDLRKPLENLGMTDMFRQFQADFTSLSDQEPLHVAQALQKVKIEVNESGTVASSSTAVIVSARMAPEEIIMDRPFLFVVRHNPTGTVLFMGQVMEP

Row | Inhibitory Ratio at 25 μM (%) (test compound 25 μM) | Inhibitory Ratio at 25 μM (%) (25 μM test compound) | Compound | also measured
1 | 47 | – | COC(=O)c1cccc(N2N=C(C(C)C)C(=Cc3ccc4c(c3)OCO4)C2=O)c1 [compound 208] | –
2 | – | >99 | O=C1SC(=Cc2cccc(O)c2O)C(=O)N1Cc1ccc(Nc2ccccc2)cc1 [compound 309] | –
3 | – | 64 | CC(C)C1=NN(c2ccc(C(=O)O)cc2)C(=O)C1=Cc1cc(C=Cc2ccccc2)ccc1O [compound 534] | –
4 | – | >99 | O=C1C(=Cc2cccc(O)c2)C(c2ccc(O)cc2)=NN1c1cc(Cl)cc(Cl)c1 [compound 509, 4-(3-Hydroxybenzylidene)-1-(3,5-dichlorophenyl)-3-(4-hydroxyphenyl)-2-pyrazolin-5-one] | –
5 | – | >99 | O=C1C(=Cc2ccc(O)c(O)c2)SC(=S)N1Cc1ccc(C(F)(F)F)cc1 [compound 307, 5-(3,4-Dihydroxybenzylidene)-3-[4-(trifluoromethyl)benzyl]rhodanine] | IC50 (50% inhibitory concentration of PAI-1 activity, according to the aforementioned method): 0.58 µM
6 | – | >99 | O=C(OCc1ccccc1)c1cc(C=C2SC(=O)N(Cc3ccc(Cl)c(Cl)c3)C2=O)cc(O)c1O [compound 463, 5-[3,4-Dihydroxy-5-(benzyloxycarbonyl)benzylidene]-3-(3,4-dichlorobenzyl)thiazolidine-2,4-dione] | –
7 | 94 | – | CC(C)C1=NN(c2cc(Cl)cc(Cl)c2)C(=O)C1=Cc1ccc(Cl)c([N+](=O)[O-])c1 [compound 206] | –
8 | 38 | – | Cc1cccc(N2N=C(C(C)C)C(=Cc3ccc(O)c(O)c3)C2=O)c1 [compound 125, 4-(3,4-Dihydroxybenzylidene)-1-(3-methylphenyl)-3-isopropyl-2-pyrazolin-5-one] | –
9 | 21 | – | COC(=O)c1cccc(-c2ccc(C=C3C(=O)N(c4cccc(C(=O)O)c4)N=C3C)o2)c1 [compound 189] | –
10 | – | 27 | COc1ccc(C(=O)Nc2cc(C=C3SC(=O)N(Cc4ccc(Cl)c(Cl)c4)C3=O)ccc2OC)cc1 [compound 381, 5-[4-methoxy-3-(4-methoxybenzoylamino)benzylidene]-3-(3,4-dichlorobenzyl)thiazolidine-2,4-dione] | –
11 | – | 91 | O=C(OCc1ccccc1)c1cc(C=C2SC(=O)N(Cc3ccc(Cl)c(Cl)c3)C2=O)cc(-c2ccccc2)c1O [compound 426, 5-[3-Phenyl-4-hydroxy-5-(benzyloxycarbonyl)benzylidene]-3-(3,4-dichlorobenzyl)thiazolidine-2,4-dione] | –
12 | >99 | – | O=C1SC(=Cc2cccc(O)c2O)C(=O)N1Cc1cc(Br)cc(Br)c1 [compound 47] | –
13 | – | >99 | COc1cc(NC(=O)c2cc(C=C3SC(=O)N(Cc4ccc(Cl)c(Cl)c4)C3=O)ccc2O)cc(C(F)(F)F)c1 [compound 451, 5-{4-hydroxy-3-[3-methoxy-5-(trifluoromethyl)phenylcarbamoyl]-benzylidene}-3-(3,4-dichlorobenzyl)thiazolidine-2,4-dione] | –
14 | >99 | – | CC(C)(C)C1=NN(c2cc(Cl)cc(Cl)c2)C(=O)C1=Cc1ccc(O)c(O)c1 [compound 138, 4-(3,4-Dihydroxybenzylidene)-1-(3,5-dichlorophenyl)-3-(tert-butyl)-2-pyrazolin-5-one] | –
15 | 23 | – | COC(=O)c1cccc(N2N=C(C(F)(F)F)C(=Cc3ccc(-c4cc(Cl)cc(Cl)c4)s3)C2=O)c1 [compound 181] | –
16 | – | 63 | O=C1SC(=Cc2ccc(Cl)c(O)c2)C(=O)N1Cc1ccc(Cl)c(Cl)c1 [compound 328] | –
17 | – | >99 | O=C1SC(=Cc2cccc(Oc3ccccc3)c2)C(=O)N1Cc1cc(O)c(O)c(O)c1 [compound 310, 5-(3-Phenoxybenzylidene)-3-(3,4,5-trihydroxybenzyl)thiazolidine-2,4-dione] | –
18 | >99 | – | COC(=O)c1cccc(N2N=C(c3ccccc3)C(=Cc3ccc(O)c(O)c3)C2=O)c1 [compound 154, 4-(3,4-Dihydroxybenzylidene)-1-[3-(methoxycarbonyl)phenyl]-3-phenyl-2-pyrazolin-5-one] | –
19 | – | >99 | COc1cc(C=C2SC(=O)N(Cc3ccc(Cl)c(Cl)c3)C2=O)cc([N+](=O)[O-])c1O [compound 346, 5-(3-methoxy-4-hydroxy-5-nitrobenzylidene)-3-(3,4-dichlorobenzyl)thiazolidine-2,4-dione] | –
20 | – | >99 | O=C(Nc1cccc(C=C2SC(=O)N(Cc3ccc(Cl)c(Cl)c3)C2=O)c1)c1ccc(O)c(O)c1 [compound 370] | –

Row | Inhibitory Ratio at 25 μM (%) (test compound 25 μM) | Inhibitory Ratio at 25 μM (%) (25 μM test compound) | Compound | also measured
21 | 62 | – | CCOC(=O)c1cc(C=C2SC(=O)N(Cc3cc(C(F)(F)F)cc(C(F)(F)F)c3)C2=O)ccc1O [compound 28, 5-(3-Ethoxycarbonyl-4-hydroxybenzylidene)-3-[3,5-bis(trifluoromethyl)-benzyl]thiazolidine-2,4-dione] | –
22 | – | >99 | COCC1=NN(c2cc(Cl)cc(Cl)c2)C(=O)C1=Cc1cc(O)c(O)cc1O [compound 522] | –
23 | >99 | – | O=C1SC(=Cc2ccc(O)c(O)c2)C(=O)N1Cc1cc(F)cc(F)c1 [compound 25] | –
24 | 89 | – | CCOC(=O)C1=NN(c2cccc(C(=O)OCC)c2)C(=O)C1=Cc1ccc(-c2cc(Cl)cc(Cl)c2)o1 [compound 185] | –
25 | >99 | – | O=C1SC(=Cc2cccc(O)c2O)C(=O)N1Cc1cccc(Oc2ccccc2)c1 [compound 16, 5-(2,3-Dihydroxybenzylidene)-3-(3-phenoxybenzyl)thiazolidine-2,4-dione] | –
26 | 54 | – | CC1=NN(c2ccccc2)C(=O)C1=Cc1ccc(-c2cc(C(=O)O)ccc2Cl)o1 [compound 163] | –
27 | 56 | – | COc1ccc(N2C(=O)C(=Cc3ccc(O)c(O)c3)SC2=S)cc1OC [compound 76, 5-(3,4-Dihydroxybenzylidene)-3-(3,4-dimethoxyphenyl)rhodanine] | –
28 | >99 | – | O=C1SC(=Cc2ccc(O)c(O)c2)C(=O)N1Cc1ccc(Cl)cc1 [compound 33] | –
29 | – | >99 | O=C(Cc1cccc(Oc2ccccc2)c1)Nc1cccc(CN2C(=O)SC(=Cc3ccc(O)c(O)c3)C2=O)c1 [compound 321] | –
30 | – | 73 | O=C(Cc1ccccc1)Nc1ccc(CN2C(=O)SC(=Cc3cccc(O)c3O)C2=O)cc1 [compound 313, 5-(2,3-Dihydroxybenzylidene)-3-[4-(phenylacetylamino)benzyl]-thiazolidine-2,4-dione] | –
31 | – | >99 | O=C(CCc1ccccc1)Nc1ccc(CN2C(=O)SC(=Cc3cccc(O)c3O)C2=O)cc1 [compound 314, 5-(2,3-Dihydroxybenzylidene)-3-[4-(3-phenylpropionylamino)benzyl]-thiazolidine-2,4-dione] | –
32 | >99 | – | O=C1C(=Cc2ccc(O)c(O)c2)C(C(F)(F)F)=NN1c1cccc([N+](=O)[O-])c1 [compound 137] | –
33 | >99 | – | O=C1SC(=Cc2ccc(O)c([N+](=O)[O-])c2)C(=O)N1Cc1ccc(Cl)c(Cl)c1 [compound 85, 5-(4-hydroxy-3-nitrobenzylidene)-3-(3,4-dichlorobenzyl)-thiazolidine-2,4-dione] | –
34 | – | 88 | COc1ccc(NC(=O)c2cc(C=C3SC(=O)N(Cc4cc(Cl)cc(Cl)c4)C3=O)ccc2O)cc1OC [compound 395, 5-[4-Hydroxy-3-(3,4-dimethoxyphenylcarbamoyl)benzylidene]-3-(3,5-dichlorobenzyl)thiazolidine-2,4-dione] | –
35 | 46 | – | CC(C)C1=NN(c2cc(Cl)cc(Cl)c2)C(=O)C1=Cc1ccc(Br)cc1 [compound 207] | –
36 | >99 | – | O=C1SC(=Cc2cccc(O)c2O)C(=O)N1Cc1ccc(Cl)cc1 [compound 32, 5-(2,3-Dihydroxybenzylidene)-3-(4-chlorobenzyl)thiazolidine-2,4-dione] | –
37 | >99 | – | CC(C)C1=NN(c2ccc(Cl)c(Cl)c2)C(=O)C1=Cc1cc(O)c(O)c(O)c1 [compound 134, 4-(3,4,5-Trihydroxybenzylidene)-1-(3,4-dichlorophenyl)-3-isopropyl-2-pyrazolin-5-one] | –
38 | – | 51 | COc1ccc(-c2cc(C=C3SC(=O)N(Cc4ccc(Cl)c(Cl)c4)C3=O)ccc2OC)cc1 [compound 448, 5-[4-Methoxy-3-(4-methoxyphenyl)benzylidene]-3-(3,4-dichlorobenzyl)thiazolidine-2,4-dione] | –
39 | 20 | – | O=C1C(=Cc2ccc(O)c(O)c2)SC(=S)N1c1ccc(O)c(O)c1 [compound 77, 5-(3,4-Dihydroxybenzylidene)-3-(3,4-dihydroxyphenyl)rhodanine] | –
40 | – | >99 | CC(C)C1=NN(c2cc(Cl)cc(Cl)c2)C(=O)C1=Cc1cc(O)c(O)c(Br)c1 [compound 540] | –

Row | Compound | Inhibitory Ratio at 25 μM (%) (test compound 25 μM) | Inhibitory Ratio at 25 μM (%) (25 μM test compound) | also measured
41 | O=C(O)c1cccc(N2N=C(C(F)(F)F)C(=Cc3ccc(-c4cc(Cl)cc(Cl)c4)o3)C2=O)c1 [compound 162] | 56 | – | –
42 | CC(C)C1=NN(c2ccc(Cl)c(Cl)c2)C(=O)C1=Cc1cc(O)ccc1O [compound 519] | – | 80 | –
43 | COc1ccc(C(C)(C)C)cc1NC(=O)c1cc(C=C2SC(=O)N(Cc3ccc(Cl)c(Cl)c3)C2=O)ccc1O [compound 467] | – | >99 | –
44 | O=C(O)c1cccc(N2N=C(C(F)(F)F)C(=Cc3ccc(-c4cc(Cl)cc(Cl)c4)o3)C2=O)c1 [compound 176] | 65 | – | –
45 | O=C(Nc1cc(C(F)(F)F)cc(C(F)(F)F)c1)c1cc(C=C2SC(=O)N(Cc3ccc(Cl)c(Cl)c3)C2=O)ccc1O [compound 404] | – | >99 | –
46 | O=C(Nc1cc(C(F)(F)F)ccc1Cl)c1cc(C=C2SC(=O)N(Cc3ccc(Cl)c(Cl)c3)C2=O)cc(O)c1O [compound 469] | – | >99 | –
